Reference: patent publication US6461644B1, “Anesthetizing plastics, drug delivery plastics, and related medical products, systems and methods” (priority 1996, dated 2002)

Assays:
skin = test: Demonstrations of anesthetizing plastic, tapes and adhesive films on skin; type: in vivo, human; settings: employed instead of lidocaine
Text: […]. For instance, lidocaine added to polyvinyl chloride is all that is needed to create a soft, stretchy, elastic vinyl milled film or sheet. Like the common vinyl plasticizer di-isooctyl phthalate, lidocaine base slowly migrates to the surface of the formed object, to serve as a sustained source of anesthetic to tissue contacted by the device. The rate of drug delivery is governed by the selected concentration of the drug, the selected plastic resin and the acceptance rate of the part of the body with which the anesthetizing plastic is in contact. […]. A piece of such milled vinyl anesthetic material has remained taped to skin for 10 days without any diminution of anesthetizing effect or apparent loss of plasticization.
. […]. However, when this adhesive-topical anesthetic mixture is applied to polyethylene film as a carrier and is pressed with a warm hand to human skin, sufficient tackiness is observed that the film clings to the applied areas effectively, but can be readily removed. The tacky product is suitably dispensed with the tacky layer protected by contact with silicone coated release paper.
With such devices, in 1-3 hours topical anesthesia of the skin is established, which will last for 2-3 days if the film patch is left in place. Washing the skin e.g. with lauramide surfactant prior to applying the film decreases the onset time for skin anesthesia. […]

[1] = Experimental: In one case, in the course of manufacture, propafenone is dissolved in orally administratable solid granules such as coarse or fine powder of non-biodegradable thermoplastic resin. […] In another embodiment, the resin is formed on or as an implant to release the drug directly to heart tissue or the blood stream, or as a transdermal patch or as a drug-applying ear or nose plug.

Structure (SMILES) | duration of anesthesia following removal compared with lidocaine (skin) | amount held by PVC ([1]; PVC) | amount in solution in PVC that can be employed ([1]; PVC) [% by weight] | amount held by CPE ([1]; chlorinated polyethylene, by milling) | amount held by EP ([1]; ethylene propylene, by milling)
CCCCNc1ccc(C(=O)OCCN(C)C)cc1 [tetracaine] | substantially longer | – | – | – | –
CCCCOc1cc(C(=O)NCCN(CC)CC)c2ccccc2n1 [dibucaine] | substantially longer | – | – | – | –
CCN(CC)CC(=O)Nc1c(C)cccc1C [lidocaine base] | – | about 50% | ≥ 50 | about 25% | about 25%
